The target of data set [1] is T1, Lysosomal protective protein (Homo sapiens) (UniProt P10619).
T1 sequence (whole entry): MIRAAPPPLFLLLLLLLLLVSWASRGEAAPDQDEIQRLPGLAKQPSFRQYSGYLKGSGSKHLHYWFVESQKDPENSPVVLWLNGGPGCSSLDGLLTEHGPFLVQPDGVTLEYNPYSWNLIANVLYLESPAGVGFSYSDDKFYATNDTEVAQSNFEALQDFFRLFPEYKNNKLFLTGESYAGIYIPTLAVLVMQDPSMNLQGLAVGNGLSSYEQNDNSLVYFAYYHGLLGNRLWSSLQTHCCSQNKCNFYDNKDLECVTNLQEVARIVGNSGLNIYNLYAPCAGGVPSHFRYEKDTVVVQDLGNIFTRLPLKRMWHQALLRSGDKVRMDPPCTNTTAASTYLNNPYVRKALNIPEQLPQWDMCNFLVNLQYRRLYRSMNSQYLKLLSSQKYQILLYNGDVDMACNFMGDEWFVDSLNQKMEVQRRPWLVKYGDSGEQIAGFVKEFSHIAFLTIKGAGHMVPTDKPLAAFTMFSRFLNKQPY
Nature of the data set: Substrate activity at cathepsin A (unknown origin) at 30 uM after 30 mins.

Data set [2] is described as follows: Drug metabolism assessed as M5 metabolite formation. The data set is classed as ADME.
A short description of data set [3]: Drug metabolism assessed as M11 metabolite formation. The data set is classed as ADME.
The nature of data set [4]: Drug metabolism assessed as M9 metabolite formation. The class given is ADME.
Data set [5] deals with Human immunodeficiency virus 1. Nature of the data set: Antiviral activity against HIV-1 infected in MT4 cells assessed as reduction in virus-induced cytopathic effect preincubated for 1 hr followed by viral infection and measured after 5 days by XTT assay. The class given is functional, organism-based. The settings on record: Human immunodeficiency virus 1, MT4. Background: Damage to the host cells serves as the signal in cytopathic effect assays.

Data set [6] can be described thus: Cytotoxicity against in human MT4 cells after 5 days by XTT assay. The data set is classed as cell-based. To be noted: time 5 day.
Data set [7] can be described thus: Drug metabolism assessed as M12 metabolite formation. The data set is classed as ADME.
The nature of data set [8]: Drug metabolism assessed as M1 metabolite formation. The data set is classed as ADME.
A short description of data set [9]: Drug uptake in human CCRF-CEM cells assessed as intracellular intact prodrug level at 50 uM after 45 mins by ECHO-MS analysis. The class given is ADME, cell-based. To be noted: 0.75 h.
A short description of data set [10]: Drug uptake in human CCRF-CEM cells assessed as released tenofovir level at 50 uM after 45 mins by ECHO-MS analysis. The class given is ADME, cell-based. To be noted: 0.75 h.

Structures are written as SMILES.

For the molecule `CC(C)OC(=O)[C@H](C)N[P@@](=O)(CO[C@H](C)Cn1cnc2c(N)ncnc21)Oc1ccc(C[C@H](NCCCc2ccccc2)C(=O)CC2CCCC2)cc1`, the Activity in data set [1] was found to be 10.2 pmol/min/mg. For the same molecule, the Drug metabolism result in data set [2], in data set [3], in [4], in data set [7] and in data set [8] was “Metabolite_Detected” each time. The 50% effective concentration (EC50) (commonly the concentration needed to bring the measured effect to its halfway point) in data set [5] stood at 0.0096 µM. Moreover, it took 7.3 µM to reach half-maximal cytotoxicity in [6] (CC50 at 120 h). Moreover, the Drug uptake in data set [9] is given as 266.22 pmol; in data set [10] it was 50.12 pmol.

The values are drawn from ChEMBL document CHEMBL4840358, “Discovery of Modified Amidate (ProTide) Prodrugs of Tenofovir with Enhanced Antiviral Properties” (J Med Chem, 2021).
